For data set [1], the system named is human lung epithelial A549 cells. How it is done:
Human lung epithelial cells (A549 cells) were obtained from American Type Culture Collection (ATCC® CCL-185™, Manassas, VA, USA), grown and sub-cultured in Dulbecco's modified Eagle's medium (DMEM) supplemented with 10% fetal bovine serum (FBS). A549 cells (1×10^5 cells/mL, 12-well plate) were seeded in supplemented DMEM at 37° C. in a humidified atmosphere containing 5% CO2 until 80% confluency. All experiments were conducted in three replicates. Cells were treated with 1.0 mM polymyxin B in the presence and absence of tobramycin (1.0, 3.0, 5.0, 10.0 and 20.0 mM), amikacin (5.0 and 20.0 mM), gentamicin (5.0, 10.0 and 20.0 mM) and plazomicin (5.0 and 20.0 mM) in supplemented DMEM (1% FBS); and cell viability were examined at 24h with flow cytometry after staining with propidium iodide.

The test system of the next data set is mouse lung tissue. The data set is described as follows: Lung histology examination after intratracheal administration in mice. How it is done: The animal study was approved by the Animal Ethics Committee of the Monash Institute of Pharmaceutical Sciences, Monash University (Parkville, Victoria, Australia). All experiments were conducted in accordance with the Australian Code of Practice for the Care and Use of Animals for Scientific Purposes. Swiss Albino mice (female; age, 6 weeks; body weight, 20 to 25 g) were obtained from the Monash Animal Research Platform (Clayton, Victoria, Australia). […] The animals were housed individually in metabolic cages and had free access to food and water. Mice were intratracheally administered 10 mg/kg of polymyxin B, 60 mg/kg of tobramycin and the combination of tobramycin with polymyxin B in sterile 0.9% saline three times a day and lung histology examination were conducted in a blind manner.

Setting [2] is: mice, intratracheal, three times a day, 10 mg/kg polymyxin B, 60 mg/kg tobramycin, or both.

Read-outs that look alike come from different tables or passages of the source.

The cell viability is the share of living cells, or the viability signal relative to a control. Higher therefore signals less harm to the cells. `NC[C@H]1O[C@H](O[C@H]2[C@H](O)[C@@H](O[C@H]3O[C@H](CO)[C@@H](O)[C@H](N)[C@H]3O)[C@H](N)C[C@@H]2N)[C@H](N)C[C@@H]1O` [Tobramycin, tobramycin] came in with a cell viability in data set [1] (human, 24 h, 20 mM) of 87.4±1.6%. In addition, the “effect on polymyxin B-induced pulmonary toxicity” value in the data set on mouse lung tissue (mouse, in vivo) was “significantly reduced”.
Turning to polymyxin B, in data set [1] (1.0 mM polymyxin B alone, A549 cells, 24h, mean±SD n=3), the cell viability amounted to 40.7±7.4%. Moreover, in the data set on mouse lung tissue (setting [2]), the “area of lung tissue affected by damage” value is listed as 25-50% and the “semi-quantitative score (SQS) of lung histology” value is reported as “+2 to +5”.

Values taken from patent publication US12472195B2, “Inhalation formulations of antimicrobial compounds” (priority 2020, dated 2025).
